Assay results: PubChem BioAssay (NCI)
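Results reflect a 48-hour exposure of cells in 96-well plates to compound at five concentrations. Here, GI50 denotes the concentration required for 50% inhibition of growth. Definition used: TGI = concentration required for complete inhibition of growth.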

What was measured:
Test in all cases: NCI tumour cell line growth inhibition, 48 h
MALME-3M melanoma = system: MALME-3M melanoma
MOLT-4 leukemia = system: MOLT-4 leukemia
U251 CNS = system: U251 CNS
NCI-H226 lung = system: NCI-H226 lung
EKVX NSCLC = system: EKVX NSCLC
CAKI-1 renal = system: CAKI-1 renal
K-562 leukemia = system: K-562 leukemia
DU-145 prostate = system: DU-145 prostate
HS 578T breast = system: HS 578T breast
BT-549 breast = system: BT-549 breast

Cc1cc(Cl)ccc1N1C(=O)C(=O)C(c2nc3ccccc3o2)C(=O)C1=O
TGI (MALME-3M melanoma): > 100 µM | TGI (MOLT-4 leukemia): > 100 µM | TGI (U251 CNS): > 100 µM | TGI (NCI-H226 lung): > 100 µM | TGI (EKVX NSCLC): > 100 µM | TGI (CAKI-1 renal): > 100 µM

C=C[Si](C)(C)COC(=O)/C(C#N)=C/C=C/c1ccccc1
TGI (MALME-3M melanoma): > 100 µM | TGI (MOLT-4 leukemia): > 100 µM | TGI (K-562 leukemia): > 100 µM | TGI (U251 CNS): > 100 µM | TGI (NCI-H226 lung): > 100 µM | TGI (EKVX NSCLC): > 100 µM

O=C(Nc1cc(C(F)(F)F)cc(C(F)(F)F)c1)Nc1ccc(OCc2nnc(-c3ccc(Cl)cc3)o2)c(F)c1
GI50 (MALME-3M melanoma): 2.3 µM | TGI (MALME-3M melanoma): 6.27 µM | GI50 (MOLT-4 leukemia): 2.72 µM | TGI (MOLT-4 leukemia): 12 µM | GI50 (DU-145 prostate): 3.58 µM | TGI (DU-145 prostate): 15.2 µM | GI50 (K-562 leukemia): 2.37 µM | TGI (K-562 leukemia): 24.3 µM | GI50 (U251 CNS): 1.49 µM | TGI (U251 CNS): 3.24 µM | GI50 (NCI-H226 lung): 2.93 µM | TGI (NCI-H226 lung): 12.5 µM | GI50 (HS 578T breast): 2.38 µM | TGI (HS 578T breast): 12.1 µM | GI50 (CAKI-1 renal): 2.72 µM | TGI (CAKI-1 renal): 15.8 µM

COc1cc2oc(-c3cccc(C(=O)Nc4ccc(C)cc4)c3)cc(=O)c2c(OC)c1OC
GI50 (BT-549 breast): 1.71 µM | TGI (BT-549 breast): 54.5 µM | GI50 (MOLT-4 leukemia): 5.8 µM | TGI (MOLT-4 leukemia): > 100 µM | GI50 (DU-145 prostate): 3.21 µM | TGI (DU-145 prostate): > 100 µM | GI50 (K-562 leukemia): 3.4 µM | TGI (K-562 leukemia): > 100 µM | GI50 (U251 CNS): 3.26 µM | TGI (U251 CNS): > 100 µM | GI50 (NCI-H226 lung): 6.65 µM | TGI (NCI-H226 lung): > 100 µM | GI50 (HS 578T breast): 4.61 µM | TGI (HS 578T breast): > 100 µM | GI50 (CAKI-1 renal): 0.315 µM | TGI (CAKI-1 renal): 3.22 µM

COC1C(O)CC(OC2CC(OC3CC(O[C@@H]4C(=O)c5c(cc6cc(OC7CC(OC8CC(O)C(O)C(C)O8)C(O)C(C)O7)c(C)c(O)c6c5O)C[C@H]4[C@H](OC)C(=O)[C@@H](O)[C@@H](C)O)OC(C)C3O)OC(C)C2O)OC1C (stereo partly specified)
TGI (BT-549 breast): 11.2 µM | TGI (MALME-3M melanoma): 0.243 µM | TGI (MOLT-4 leukemia): 0.222 µM | TGI (DU-145 prostate): 0.281 µM | GI50 (K-562 leukemia): < 0.019 µM | TGI (K-562 leukemia): > 100 µM | TGI (U251 CNS): > 9.45 µM | TGI (NCI-H226 lung): < 0.215 µM | TGI (EKVX NSCLC): 8.06 µM | TGI (CAKI-1 renal): > 100 µM

CCOC(=O)N1CCc2cc(OC)c(OC)cc2/C1=C/c1ccc(OC)c(OC)c1
TGI (MALME-3M melanoma): 67.6 µM | TGI (MOLT-4 leukemia): > 100 µM | TGI (K-562 leukemia): > 100 µM | TGI (U251 CNS): > 100 µM | TGI (NCI-H226 lung): > 100 µM | TGI (EKVX NSCLC): > 100 µM

COc1ccc(C(=O)C/C(=N/NC(N)=S)C(=O)Nc2ccccc2)cc1
TGI (MALME-3M melanoma): > 100 µM | TGI (MOLT-4 leukemia): > 100 µM | TGI (K-562 leukemia): > 100 µM | TGI (U251 CNS): > 100 µM | TGI (NCI-H226 lung): > 100 µM | TGI (EKVX NSCLC): > 100 µM | TGI (CAKI-1 renal): > 100 µM

NC1=NCC(c2ccccn2)C1c1ccc(F)cc1 (stereo unspecified)
TGI (MALME-3M melanoma): > 100 µM | TGI (MOLT-4 leukemia): > 100 µM | TGI (K-562 leukemia): > 100 µM | TGI (U251 CNS): > 100 µM | TGI (NCI-H226 lung): > 100 µM | TGI (EKVX NSCLC): > 100 µM | TGI (CAKI-1 renal): > 100 µM

COc1ccc(C2CC(c3cccc(OC)c3)=NN2C(=O)c2cc(OC)c(OC)c(OC)c2)cc1 (stereo unspecified)
GI50 (BT-549 breast): 2.05 µM | TGI (BT-549 breast): > 100 µM | GI50 (MOLT-4 leukemia): 2.14 µM | TGI (MOLT-4 leukemia): > 100 µM | GI50 (DU-145 prostate): 2.66 µM | TGI (DU-145 prostate): > 41.6 µM | GI50 (K-562 leukemia): 0.431 µM | TGI (K-562 leukemia): > 20.5 µM | GI50 (U251 CNS): 3.04 µM | TGI (U251 CNS): > 100 µM | TGI (NCI-H226 lung): > 100 µM | GI50 (EKVX NSCLC): 3.35 µM | TGI (EKVX NSCLC): > 100 µM | GI50 (HS 578T breast): 1.21 µM | TGI (HS 578T breast): 5.37 µM | GI50 (CAKI-1 renal): 1.22 µM | TGI (CAKI-1 renal): > 100 µM

Cc1cccc(Cl)c1NC(=O)c1cccc([N+](=O)[O-])c1O
TGI (MALME-3M melanoma): 84.7 µM | TGI (MOLT-4 leukemia): > 100 µM | TGI (K-562 leukemia): > 100 µM | TGI (U251 CNS): > 100 µM | TGI (NCI-H226 lung): 95.9 µM | TGI (EKVX NSCLC): > 100 µM | TGI (CAKI-1 renal): > 100 µM

COc1ccc(C2N3CCCCC3[C@@H]3c4[nH]c5ccccc5c4CCN23)c(OC)c1 (stereo partly specified)
TGI (MOLT-4 leukemia): 49.9 µM | TGI (K-562 leukemia): > 100 µM | TGI (U251 CNS): > 100 µM | TGI (EKVX NSCLC): > 100 µM | TGI (CAKI-1 renal): > 100 µM

O=C([CH-]C(=O)c1ccccc1)c1ccccc1.[CH3-].[CH3-].[CH3-].[Sn+4]
GI50 (MALME-3M melanoma): 10.7 µM | TGI (MALME-3M melanoma): 29.6 µM | GI50 (MOLT-4 leukemia): 3.18 µM | TGI (MOLT-4 leukemia): 13.6 µM | GI50 (K-562 leukemia): 4.92 µM | TGI (K-562 leukemia): 23.6 µM | GI50 (U251 CNS): 6.87 µM | TGI (U251 CNS): 52 µM | GI50 (NCI-H226 lung): 6.62 µM | TGI (NCI-H226 lung): 65.7 µM | GI50 (EKVX NSCLC): 33.1 µM | TGI (EKVX NSCLC): > 100 µM | GI50 (CAKI-1 renal): 13.6 µM | TGI (CAKI-1 renal): > 100 µM

CN(C)CCC(/C=C/c1ccccc1)=N\Nc1ccc(Cl)cc1
TGI (MALME-3M melanoma): 26.2 µM | TGI (MOLT-4 leukemia): 5.43 µM | TGI (K-562 leukemia): 5.02 µM | TGI (U251 CNS): 5.51 µM | TGI (EKVX NSCLC): 11.4 µM

NC(=NCCO)c1ccc(N2CCCN(c3ccc(C(N)=NCCO)cc3)CC2)cc1
GI50 (MALME-3M melanoma): 72.9 µM | TGI (MALME-3M melanoma): > 100 µM | GI50 (U251 CNS): > 100 µM | TGI (U251 CNS): > 100 µM | GI50 (NCI-H226 lung): > 100 µM | TGI (NCI-H226 lung): > 100 µM | GI50 (CAKI-1 renal): > 100 µM | TGI (CAKI-1 renal): > 100 µM

CC(C)(C)c1cc(-c2c3nc(c(-c4cc(C(C)(C)C)cc(C(C)(C)C)c4)c4ccc([nH]4)c(-c4cc(C(C)(C)C)cc(C(C)(C)C)c4)c4nc(c(-c5cc(C(C)(C)C)cc(C(C)(C)C)c5)c5ccc2[nH]5)C=C4)C=C3)cc(C(C)(C)C)c1
TGI (MALME-3M melanoma): > 100 µM | TGI (MOLT-4 leukemia): > 100 µM | TGI (K-562 leukemia): > 100 µM | TGI (U251 CNS): > 100 µM | TGI (NCI-H226 lung): > 100 µM | TGI (EKVX NSCLC): > 100 µM | TGI (CAKI-1 renal): > 100 µM

COc1ccc(C2SCC(=O)N2NC(=O)C(O)c2ccccc2)cc1 (stereo unspecified)
GI50 (BT-549 breast): > 100 µM | TGI (BT-549 breast): > 100 µM | GI50 (MOLT-4 leukemia): > 100 µM | TGI (MOLT-4 leukemia): > 100 µM | GI50 (DU-145 prostate): > 100 µM | TGI (DU-145 prostate): > 100 µM | GI50 (K-562 leukemia): 55.5 µM | TGI (K-562 leukemia): > 100 µM | GI50 (U251 CNS): > 100 µM | TGI (U251 CNS): > 100 µM | GI50 (NCI-H226 lung): > 100 µM | TGI (NCI-H226 lung): > 100 µM | GI50 (EKVX NSCLC): > 100 µM | TGI (EKVX NSCLC): > 100 µM | GI50 (HS 578T breast): > 100 µM | TGI (HS 578T breast): > 100 µM | GI50 (CAKI-1 renal): > 100 µM | TGI (CAKI-1 renal): > 100 µM

Cc1cccc2cc3cccc(C(=O)NCCN(C)C)c3nc12
TGI (MALME-3M melanoma): 1.11 µM | TGI (MOLT-4 leukemia): 0.344 µM | TGI (K-562 leukemia): 11.3 µM | TGI (U251 CNS): 2.15 µM | TGI (NCI-H226 lung): 0.343 µM | TGI (EKVX NSCLC): 1.69 µM | TGI (CAKI-1 renal): 0.327 µM

Oc1c(Cl)cc(CN(Cc2cc(Cl)c(O)c(Cl)c2)C2CCCCC2)cc1Cl
TGI (BT-549 breast): > 100 µM | TGI (MALME-3M melanoma): > 100 µM | TGI (MOLT-4 leukemia): > 100 µM | TGI (DU-145 prostate): > 100 µM | TGI (K-562 leukemia): > 100 µM | TGI (U251 CNS): > 100 µM | TGI (EKVX NSCLC): > 100 µM | TGI (HS 578T breast): > 100 µM | TGI (CAKI-1 renal): > 100 µM

O=[N+]([O-])c1ccc2nc3ccscc-3c2c1
TGI (MALME-3M melanoma): > 100 µM | TGI (MOLT-4 leukemia): > 100 µM | TGI (K-562 leukemia): > 100 µM | TGI (U251 CNS): 85.3 µM | TGI (NCI-H226 lung): > 100 µM | TGI (EKVX NSCLC): > 100 µM | TGI (CAKI-1 renal): 26.2 µM

COc1cc2c(c(OC)c1OC)C(=O)c1c-2n(CCCN=[N+]=[N-])c(=O)c2cc([N+](=O)[O-])ccc12
GI50 (BT-549 breast): 27.3 µM | TGI (BT-549 breast): > 100 µM | GI50 (MOLT-4 leukemia): > 100 µM | TGI (MOLT-4 leukemia): > 100 µM | GI50 (DU-145 prostate): > 100 µM | TGI (DU-145 prostate): > 100 µM | GI50 (K-562 leukemia): > 100 µM | TGI (K-562 leukemia): > 100 µM | GI50 (U251 CNS): 58 µM | TGI (U251 CNS): > 100 µM | GI50 (NCI-H226 lung): > 100 µM | TGI (NCI-H226 lung): > 100 µM | GI50 (EKVX NSCLC): > 100 µM | TGI (EKVX NSCLC): > 100 µM | GI50 (HS 578T breast): 25.3 µM | TGI (HS 578T breast): > 100 µM | GI50 (CAKI-1 renal): 60.6 µM | TGI (CAKI-1 renal): > 100 µM
